Assay results published in patent US9694078B2, “Tigecycline compositions and methods of preparation” (priority 2005, dated 2017).

How the values were obtained:
[1] = oral; cited from earlier work
[2] = tested on: penicillin-resistant Streptococcus pneumoniae; details: cited from earlier work
[3] = pH of tigecycline dissolved in water prior to lyophilization; format: physicochemical
Description: Tigecycline has such a short admixture time and the reconstitution time is essentially zero because in solution, tigecycline oxidation is relatively rapid. Under current manufacturing, storage, and administration conditions, the most prevalent form of degradation is via oxidation. The reason oxidation is the most prevalent form of degradation in previous formulations relates to the chemical structure of tigecycline. […] When tigecycline is dissolved in water prior to lyophilization, the pH is slightly basic (about 7.8). This is higher than the pKa of the phenolic group on tigecycline. Thus, in both water and saline solutions, the phenolic group becomes deprotonated and more susceptible to reaction with oxygen which is why tigecycline compounding and lyophilization occur under a nitrogen blanket. Accordingly, care to avoid unnecessary exposure to oxygen must be taken by hospital staff during reconstitution and dilution.

[4] = tested on: methicillin-resistant Staphylococcus aureus; details: cited from earlier work
[5] = Epimerization of minocycline versus tigecycline lyophilized at pH about 5.0, HPLC; format: physicochemical; details: lyophilized at pH about 5.0, stored 4 days at 40° C. and 75% relative humidity
Description: In another experiment, minocycline was lyophilized at a pH of about 5.0 and the lyophilized cake was stored for 20 days at 40° C. and 75% relative humidity. At the end of the 20 days, the cake was analyzed by HPLC. The epimer of minocycline was measured to be present at a level of 2.65% by mass. By comparison, when tigecycline was lyophilized at a pH of about 5.0 and the sample stored under the same conditions, but for only 4 days followed by HPLC analysis, the tigecycline epimer was measured to be at a level of 5.40%, over twice as much even though tigecycline was only stressed for ⅕^th as long as minocycline. Thus, tigecycline epimerizes much more readily than minocycline, and epimerization is a much more significant problem with tigecycline than it is for minocycline.

[6] = existing composition, 1 mg/mL after dilution; cited from earlier work
[7] = tested on: vancomycin-resistant enterococci; details: cited from earlier work
bacteria = details: compared with tigecycline; cited from earlier work

SMILES	bioavailability when given orally [1]	activity against penicillin-resistant Streptococcus pneumoniae [2]	pH of solution in water [3]	activity against methicillin-resistant Staphylococcus aureus [4]	level of the tigecycline epimer [5] [%]	time within which the diluted solution should be used [6] [h]	activity against vancomycin-resistant enterococci [7]	anti-bacterial efficacy (bacteria)
CN(C)c1cc(NC(=O)CNC(C)(C)C)c(O)c2c1C[C@H]1C[C@H]3[C@H](N(C)C)C(O)=C(C(N)=O)C(=O)[C@@]3(O)C(O)=C1C2=O [Tigecycline]	generally poor	active	about 7.8	active	5.40	≤ 6	active	
CN(C)c1cc(NC(=O)CNC(C)(C)C)c(O)c2c1C[C@H]1C[C@H]3[C@@H](N(C)C)C(O)=C(C(N)=O)C(=O)[C@@]3(O)C(O)=C1C2=O [tigecycline epimer]								lacks the anti-bacterial efficacy of tigecycline
